Experimental data as given in patent publication US20120053180A1, “CYCLOHEXANE ANALOGUES AS GPR119 AGONISTS” (CHEMIZON, A DIVISION OF OPTOMAGIC CO., LTD., priority 2010, published 2012).
pEC50: −log10 of the molar value.

Target: T1, GPR119 (Homo sapiens, UniProt Q8TDV5)
T1 sequence (Q8TDV5 1-335): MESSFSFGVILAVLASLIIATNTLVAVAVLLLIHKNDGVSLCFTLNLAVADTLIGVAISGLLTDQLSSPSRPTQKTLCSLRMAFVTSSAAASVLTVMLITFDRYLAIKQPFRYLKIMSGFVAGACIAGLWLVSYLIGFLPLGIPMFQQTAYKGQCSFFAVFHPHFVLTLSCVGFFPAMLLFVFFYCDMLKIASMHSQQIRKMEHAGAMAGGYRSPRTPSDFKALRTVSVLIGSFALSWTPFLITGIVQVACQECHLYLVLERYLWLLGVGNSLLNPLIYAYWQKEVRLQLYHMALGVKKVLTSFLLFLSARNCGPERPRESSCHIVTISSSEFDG
Assay: cAMP assays of selected examples (stimulation of cAMP)
Assay type: cell-based
Source text: Camp Assays of Selected Examples

| Structure (SMILES) | pEC50 ('>200 nM') | pEC50 (<200 nM) |
| --- | --- | --- |
| CS(=O)(=O)c1ccc(OCc2cn(C3CCC(Oc4ncccn4)CC3)nn2)cc1 (centres unmarked) | < 6.70 |  |
| Cc1cnc(OC2CCC(n3cc(COc4ccc(S(C)(=O)=O)cc4)nn3)CC2)nc1 (centres unmarked) | < 6.70 |  |
| CCc1cnc(OC2CCC(n3cc(COc4ccc(S(C)(=O)=O)cc4)nn3)CC2)nc1 (centres unmarked) | < 6.70 |  |
| CCc1cnc(OC2CCC(c3nc(COc4ccc(S(C)(=O)=O)cc4)cs3)CC2)nc1 (centres unmarked) |  | > 6.70 |
| CCc1cnc(OC2CCC(c3nc(COc4ccc(S(C)(=O)=O)cc4F)cs3)CC2)nc1 (centres unmarked) |  | > 6.70 |
| CCc1cnc(OC2CCC(c3nc(COc4ccc(-n5cnnn5)cc4)cs3)CC2)nc1 (centres unmarked) |  | > 6.70 |
| CCc1cnc(OC2CCC(c3nc(CNc4ccc(S(C)(=O)=O)cc4)cs3)CC2)nc1 (centres unmarked) | < 6.70 |  |
| CCc1cnc(OC2CCC(Oc3c(F)cc(-c4ccc(S(C)(=O)=O)cc4)cc3F)CC2)nc1 (centres unmarked) |  | > 6.70 |
